Reference: the supplement of paper PMC10307832

Columns and labels:
Assay in all cases: relative viability (nuclei count vs DMSO), 5 days (fraction); higher = more cells survive
VE-821 + Vorinostat = compound: CS(=O)(=O)c1ccc(-c2cnc(N)c(C(=O)Nc3ccccc3)n2)cc1 [VE-821] + O=C(CCCCCCC(=O)Nc1ccccc1)NO [Vorinostat] (partner 1 µM)
Procedure, shortened: (§1)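 One day after seeding in 1536-well plates, lung cancer cell lines were dosed by pin tool. Dosing was either single-drug or a fixed anchor-drug dose plus five library-drug doses (not always all listed) in √10 steps. After 5 days, nuclei were stained in one fix-and-stain step and counted on 4× images, and relative viability is the nuclei count of treated wells over that of vehicle wells, given as the median of duplicate plates.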

Ruxolitinib + Alpelisib = compound: N#CC[C@H](C1CCCC1)n1cc(-c2ncnc3[nH]ccc23)cn1 [Ruxolitinib] + Cc1nc(NC(=O)N2CCC[C@H]2C(N)=O)sc1-c1ccnc(C(C)(C)C(F)(F)F)c1 [Alpelisib] (partner 2 µM)
Procedure, shortened: as §1

Vismodegib + OSI-027 = compound: CS(=O)(=O)c1ccc(C(=O)Nc2ccc(Cl)c(-c3ccccn3)c2)c(Cl)c1 [Vismodegib] + COc1cccc2cc(-c3nc([C@H]4CC[C@H](C(=O)O)CC4)n4ncnc(N)c34)[nH]c12 [OSI-027] (partner 0.5 µM)
Procedure, shortened: as §1

VE-821 + OSI-027 = compound: CS(=O)(=O)c1ccc(-c2cnc(N)c(C(=O)Nc3ccccc3)n2)cc1 [VE-821] + COc1cccc2cc(-c3nc([C@H]4CC[C@H](C(=O)O)CC4)n4ncnc(N)c34)[nH]c12 [OSI-027] (partner 0.5 µM)
Procedure, shortened: as §1

Cell Line	relative viability (VE-821 + Vorinostat; first compound 0.08 µM)	relative viability (VE-821 + Vorinostat; first compound 0.253 µM)	relative viability (VE-821 + Vorinostat; first compound 0.8 µM)	relative viability (VE-821 + Vorinostat; first compound 2.53 µM)	relative viability (VE-821 + Vorinostat; first compound 8 µM)	relative viability (Ruxolitinib + Alpelisib; first compound 0.08 µM)	relative viability (Ruxolitinib + Alpelisib; first compound 0.253 µM)	relative viability (Ruxolitinib + Alpelisib; first compound 0.8 µM)	relative viability (Ruxolitinib + Alpelisib; first compound 2.53 µM)	relative viability (Ruxolitinib + Alpelisib; first compound 8 µM)	relative viability (Vismodegib + OSI-027; first compound 0.08 µM)	relative viability (Vismodegib + OSI-027; first compound 0.253 µM)	relative viability (Vismodegib + OSI-027; first compound 0.8 µM)	relative viability (Vismodegib + OSI-027; first compound 2.53 µM)	relative viability (Vismodegib + OSI-027; first compound 8 µM)	relative viability (VE-821 + OSI-027; first compound 0.08 µM)	relative viability (VE-821 + OSI-027; first compound 0.253 µM)	relative viability (VE-821 + OSI-027; first compound 0.8 µM)	relative viability (VE-821 + OSI-027; first compound 2.53 µM)	relative viability (VE-821 + OSI-027; first compound 8 µM)
ABC-1	1.32	1.06	1.11	1.26	1.01	1.08	1.09	1.17	1.03	0.855	0.638	0.392	0.581	0.403	0.52	0.53	0.485	0.485	0.475	0.381
LOU-NH91	0.885	0.879	0.919	0.966	0.825	0.569	0.674	0.796	0.736	0.694	0.777	0.689	0.673	0.693	0.709	0.731	0.71	0.766	0.778	0.747
NCI-H727	1.12	1.28	1.16	1.02	1.16	0.604	0.597	0.874	0.749	0.338	0.57	0.451	0.446	0.528	0.655	0.721	0.624	0.619	0.54	0.355
NCI-H2023	0.783	0.467	0.441	0.243	0.121	0.617	0.56	0.595	0.489	0.6	0.464	0.354	0.411	0.322	0.478	0.392	0.311	0.274	0.274	0.11
NCI-H1563	–	–	–	–	–	0.923	0.813	1	0.895	0.818	0.757	0.734	0.767	0.694	0.809	0.736	0.727	0.713	0.751	0.718
LCLC-103H	0.863	0.772	0.783	0.834	0.592	1.02	0.875	1.08	1.03	1.02	0.462	0.461	0.364	0.476	0.476	0.478	0.478	0.404	0.468	0.365
HARA	0.6	0.472	0.624	0.633	0.708	0.862	0.817	0.785	0.697	0.857	0.702	0.47	0.529	0.492	0.466	0.75	0.434	0.497	0.76	0.392
RERF-LC-KJ	0.765	0.731	0.609	0.761	0.623	0.811	0.775	0.892	0.877	0.771	0.678	0.568	0.621	0.593	0.487	0.548	0.523	0.535	0.614	0.49
